From patent US6492365B1, “Microsomal triglyceride transfer protein” (Bristol-Myers Squibb Company, priority 1992, dated 2002)
Counter-ions that a name gives are not always drawn.

Biological target: T1, bovine MTP (Bos taurus, UniProt P55156)
T1 construct: with about 50-200 ng purified MTP in the well of a 96-well plate; from tissue; host or cells: bovine liver
T1 sequence (P55156 12-887): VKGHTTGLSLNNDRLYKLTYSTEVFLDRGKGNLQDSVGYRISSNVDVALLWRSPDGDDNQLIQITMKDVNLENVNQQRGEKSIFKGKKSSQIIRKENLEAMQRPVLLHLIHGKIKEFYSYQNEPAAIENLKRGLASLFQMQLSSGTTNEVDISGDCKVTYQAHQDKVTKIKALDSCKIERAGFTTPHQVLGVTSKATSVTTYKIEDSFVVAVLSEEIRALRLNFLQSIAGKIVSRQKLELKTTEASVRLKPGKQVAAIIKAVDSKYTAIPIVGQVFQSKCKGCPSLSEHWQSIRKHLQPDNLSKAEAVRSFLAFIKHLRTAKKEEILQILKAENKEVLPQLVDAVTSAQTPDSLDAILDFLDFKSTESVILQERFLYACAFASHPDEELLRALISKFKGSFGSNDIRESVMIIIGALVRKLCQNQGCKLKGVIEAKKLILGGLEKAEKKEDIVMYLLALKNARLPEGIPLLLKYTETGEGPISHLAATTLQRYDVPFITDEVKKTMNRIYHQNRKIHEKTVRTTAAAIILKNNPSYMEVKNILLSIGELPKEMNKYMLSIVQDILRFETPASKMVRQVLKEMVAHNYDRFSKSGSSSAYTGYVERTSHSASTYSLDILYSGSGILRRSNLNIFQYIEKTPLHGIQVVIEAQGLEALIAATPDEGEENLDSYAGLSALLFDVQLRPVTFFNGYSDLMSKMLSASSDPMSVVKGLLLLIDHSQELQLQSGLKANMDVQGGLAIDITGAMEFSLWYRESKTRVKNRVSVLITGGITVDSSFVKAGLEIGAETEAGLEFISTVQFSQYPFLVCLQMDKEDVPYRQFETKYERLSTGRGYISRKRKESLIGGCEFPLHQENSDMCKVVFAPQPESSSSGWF
T1 sequence (P05307 21-510 partner): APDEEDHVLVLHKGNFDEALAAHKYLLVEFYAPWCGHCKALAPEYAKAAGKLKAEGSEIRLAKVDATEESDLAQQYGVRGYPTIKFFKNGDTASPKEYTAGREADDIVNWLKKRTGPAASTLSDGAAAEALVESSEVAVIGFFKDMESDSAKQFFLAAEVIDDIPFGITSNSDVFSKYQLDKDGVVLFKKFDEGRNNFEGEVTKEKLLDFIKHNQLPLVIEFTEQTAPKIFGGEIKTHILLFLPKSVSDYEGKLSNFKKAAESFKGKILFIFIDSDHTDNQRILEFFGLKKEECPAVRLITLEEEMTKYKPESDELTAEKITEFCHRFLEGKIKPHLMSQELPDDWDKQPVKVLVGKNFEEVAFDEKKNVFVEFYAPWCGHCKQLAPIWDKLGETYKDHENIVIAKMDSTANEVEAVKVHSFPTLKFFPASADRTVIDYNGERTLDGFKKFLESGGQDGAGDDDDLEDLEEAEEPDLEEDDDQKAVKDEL
Test: MTP-catalyzed transfer of radiolabeled TG from donor HDL to acceptor LDL (primary screen)
Format: biochemical
Settings: result in words
Procedure: In this screen, the rate of detectably labeled lipid (for example, NMR, ESR, radio or fluorescently labeled TG, CE, or PC) transfer from donor particles (e.g., donor membranes, vesicles, or lipoproteins) to acceptor particles (e.g., acceptor membranes, vesicles, or lipoproteins) in the presence of MTP is measured. A decrease in the observed transfer rate in the presence of an inhibitor of MTP (e.g., contained in a natural products extract or known compounds) may be used as an assay to identify and isolate inhibitors of MTP function. […]
In a typical 150 μL assay, transfer activity is determined by measuring the transfer of radiolabeled TG from [^3H]-HDL (5 μg cholesterol) donor particles to LDL (50 μg cholesterol) acceptor particles at 37° C. for three hours in 15 mM Tris, pH 7.4, 125 mM MOPS, 30 mM Na acetate, 160 mM NaCl, 2.5 mM Na2 EDTA, 0.02% NaN3, 0.5% BSA with about 50-200 ng purified MTP in the well of a 96-well plate. […] The enzyme activity is based on the percentage of TG transfer and is calculated by the following equation: [formula] […]
Using the method outlined in Example 5, MTP inhibitor compounds A and B were identified. The assay measured the bovine MTP-catalyzed rate of transport of radiolabeled TG from donor HDL to acceptor LDL. […]

SMILES: O=C1c2ccccc2CN1C1CCN(CCC(c2ccccc2)c2ccccc2)CC1 [compound A, 2-[1-(3,3-diphenylpropyl)-4-piperdinyl]-2,3-dihydro-3-oxo-1H-isoindole hydrochloride]
- inhibition of MTP-catalyzed transport of 3H-TG from HDL to LDL: inhibited

SMILES: COc1ccccc1N1CCN(CC2CC(=O)c3ccc(F)cc3C2)CC1 (centres unmarked) [compound B, 1-[3-(6-fluoro-1-tetralanyl)methyl]-4-O-methoxyphenyl piperazine]
- inhibition of MTP-catalyzed transport of 3H-TG from HDL to LDL: MTP inhibitor
